Structures can show the parent of a compound that is named as a salt.
Tests used:
Human 5-HT Transporter = Human 5-HT Transporter (Homo sapiens, UniProt P31645); experiment: Inhibition of 3H-5-HT Uptake by Cells Possessing the Human 5-HT Transporter (HC 5HT Transporter), Jar cells; details: HC-5HTC Transporter Ki (nM), Jar cells treated with staurosporine
Human 5-HT Transporter, sequence (P31645 whole entry): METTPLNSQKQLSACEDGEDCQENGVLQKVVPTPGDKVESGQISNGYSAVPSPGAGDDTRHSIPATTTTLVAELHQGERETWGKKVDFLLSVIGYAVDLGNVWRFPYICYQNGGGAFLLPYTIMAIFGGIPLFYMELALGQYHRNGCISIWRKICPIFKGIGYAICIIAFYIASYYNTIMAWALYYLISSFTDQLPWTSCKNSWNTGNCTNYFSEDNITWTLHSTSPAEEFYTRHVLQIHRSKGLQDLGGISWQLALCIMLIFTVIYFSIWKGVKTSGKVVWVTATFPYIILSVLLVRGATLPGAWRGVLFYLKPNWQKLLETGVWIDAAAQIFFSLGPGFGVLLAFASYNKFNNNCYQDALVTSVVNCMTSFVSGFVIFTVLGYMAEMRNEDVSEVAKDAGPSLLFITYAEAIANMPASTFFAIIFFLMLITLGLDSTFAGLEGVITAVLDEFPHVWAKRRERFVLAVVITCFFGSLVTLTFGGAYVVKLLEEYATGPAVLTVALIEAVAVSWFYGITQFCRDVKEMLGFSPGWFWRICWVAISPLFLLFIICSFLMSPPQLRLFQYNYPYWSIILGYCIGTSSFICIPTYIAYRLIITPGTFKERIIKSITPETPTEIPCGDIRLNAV

| Ki (Human 5-HT Transporter) [nM] | melting point [°C] | Compound |
| --- | --- | --- |
| 65.3 | – | COc1cc(N2CCN([C@H]3CC[C@H](c4csc5ccc(F)cc54)CC3)CC2)c2ncccc2c1 [Compound 50, 6-methoxy-8-{4-[4-trans(5-fluoro-1-benzothien-3-yl)cyclohexyl]piperazin-1-yl}quinoline] |
| 71.3 | – | COc1ccc2c(CCN3CCN(c4cccc5cccnc45)CC3)coc2c1 [Compound 9, 8-{4-[2-(6-methoxy-1-benzofuran-3-yl)ethyl]-1-piperazinyl}-quinoline] |
| 31 | – | COc1cc(N2CCN(C(C)Cc3coc4c(OC)cccc34)CC2)c2ncccc2c1 (stereo not shown) [Compound 36, 6-methoxy-8-{4-[2-(7-methoxy-1-benzofuran-3-yl)-1-methylethyl)piperazin-1-yl]quinoline] |
| 540 | – | COc1ccc2c(CCN3CCN(c4cc(Cl)cc5cccnc45)CC3)coc2c1 [Compound 11, 8-{4-[2-(6-methoxy-1-benzofuran-3-yl)ethyl]-1-piperazinyl}-6-chloro-quinoline] |
| 58.2 | – | COc1cccc2c(C(C)CN3CCN(c4cc(C)cc5cccnc45)CC3)coc12 (stereo not shown) [Compound 32, 8-{4-[2-(7-methoxy-1-benzofuran-3-yl)propyl]-1-piperazinyl}-6-methyl-quinoline] |
| 1080 | – | Fc1cc(N2CCN(CCc3coc4cc(Cl)ccc34)CC2)c2ncccc2c1 [Compound 6, 8-{4-[2-(6-chloro-1-benzofuran-3-yl)ethyl]-1-piperazinyl}-6-fluoro-quinoline] |
| 472 | – | Fc1cc(N2CCN([C@H]3CC[C@@H](c4coc5ccccc54)CC3)CC2)c2ncccc2c1 [Compound 55, 8-{4-[4-cis(1-benzofuran-3-yl)cyclohexyl]-1-piperazinyl}-6-fluoroquinoline] |
| 50.9 | – | Fc1cc(N2CCN(CCc3coc4ccc(F)cc34)CC2)c2ncccc2c1 [Compound 17, 8-{4-[2-(5-fluoro-1-benzofuran-3-yl)ethyl]-1-piperazinyl}-6-fluoro-quinoline] |
| – | 192 | COc1cccc2c(C(C)CN3CCN(c4cccc5cccnc45)CC3)coc12 (stereo not shown) (as salt: HCl) [Compound 31, 8-{4-[2-(7-methoxy-1-benzofuran-3-yl)propyl]-1-piperazinyl}quinoline] |
| 210 | – | COc1cc(N2CCN(CCc3coc4ccc(OC)cc34)CC2)c2ncccc2c1 [Compound 25, 8-{4-[2-(5-methoxy-1-benzofuran-3-yl)ethyl]-1-piperazinyl}-6-methoxy-quinoline] |
| 125 | – | CC(CN1CCN(c2cc(Cl)cc3cccnc23)CC1)c1coc2ccccc12 (stereo not shown) [Compound 28, 8-{4-[2-(1-benzofuran-3-yl)propyl]-1-piperazinyl}-6-chloro-quinoline] |
| 612 | – | COc1cc(N2CCN(CCc3coc4ccccc34)CC2)c2ncccc2c1 [Compound 4, 8-{4-[2-(1-benzofuran-3-yl)ethyl]-1-piperazinyl}-6-methoxyquinoline] |
| 270 | – | Clc1cc(N2CCN(CCc3coc4ccc(Cl)cc34)CC2)c2ncccc2c1 [Compound 13, 8-{4-[2-(5-chloro-1-benzofuran-3-yl)ethyl]-1-piperazinyl}-6-chloro-quinoline] |
| 1710 | – | Clc1cc(N2CCN(CCc3coc4ccccc34)CC2)c2ncccc2c1 [Compound 2, 8-{4-[2-(1-benzofuran-3-yl)ethyl]-1-piperazinyl}-6-chloroquinoline] |
| 549 | – | COc1ccc2occ(CC(C)N3CCN(c4cc(C)cc5cccnc45)CC3)c2c1 (stereo not shown) [Compound 40, 6-methyl-8-{4-[2-(5-methoxy-1-benzofuran-3-yl)-1-methylethyl)piperazin-1-yl]quinoline] |
| 42.2 | – | Clc1ccc2occ(CCN3CCN(c4cccc5cccnc45)CC3)c2c1 [Compound 12, 8-{4-[2-(5-chloro-1-benzofuran-3-yl)ethyl]-1-piperazinyl}-quinoline] |
| 1.6 | – | Clc1ccc2c(CCN3CCN(c4cccc5cccnc45)CC3)coc2c1 [Compound 5, 8-{4-[2-(6-chloro-1-benzofuran-3-yl)ethyl]-1-piperazinyl}-quinoline] |
| – | 248 | COc1cccc2c(CCN3CCN(c4cc(Cl)cc5cccnc45)CC3)coc12 (as salt: HCl) [Compound 20, 8-{4-[2-(7-methoxy-1-benzofuran-3-yl)ethyl]-1-piperazinyl}-6-chloro-quinoline] |
| 1200 | – | COc1ccc2occ([C@H]3CC[C@H](N4CCN(c5ccc(Cl)c6cccnc56)CC4)CC3)c2c1 [Compound 66, 5-chloro-8-{4-[4-trans(5-methoxy-1-benzofuran-3-yl)cyclohexyl]piperazin-1-yl}quinoline] |
| 53 | – | COc1ccc2occ([C@H]3CC[C@@H](N4CCN(c5ccc(Cl)c6cccnc56)CC4)CC3)c2c1 [Compound 65, 5-chloro-8-{4-[4-cis(5-methoxy-1-benzofuran-3-yl)cyclohexyl]piperazin-1-yl}quinoline] |
| – | 193 to 194 | COc1cc(N2CCN([C@H]3CC[C@H](c4cc5ccccc5s4)CC3)CC2)c2ncccc2c1 [Compound 71] |
| 67.2 | – | Fc1ccc2occ(CCN3CCN(c4cccc5cccnc45)CC3)c2c1 [Compound 15, 8-{4-[2-(5-fluoro-1-benzofuran-3-yl)ethyl]-1-piperazinyl}-quinoline] |

| Ki (Human 5-HT Transporter) [nM] | melting point [°C] | Compound |
| --- | --- | --- |
| 51.9 | – | CC(CN1CCN(c2cccc3cccnc23)CC1)c1coc2ccccc12 (stereo not shown) [Compound 27, 8-{4-[2-(1-benzofuran-3-yl)propyl]-1-piperazinyl}quinoline] |
| – | 55 to 58 | COc1cccc2c(C(C)CN3CCN(c4cc(Cl)cc5cccnc45)CC3)coc12 (stereo not shown) (as salt: HCl) [Compound 33, 8-{4-[2-(7-methoxy-1-benzofuran-3-yl)propyl]-1-piperazinyl}-6-chloro-quinoline] |
| 40.1 | – | COc1ccc2occ(CC(C)N3CCN(c4cc(Cl)cc5cccnc45)CC3)c2c1 (stereo not shown) [Compound 39, 6-chloro-8-{4-[2-(5-methoxy-1-benzofuran-3-yl)-1-methylethyl)piperazin-1-yl]quinoline] |
| 51 | – | COc1ccc2occ(CCN3CCN(c4cc(F)cc5cccnc45)CC3)c2c1 [Compound 26, 8-{4-[2-(5-methoxy-1-benzofuran-3-yl)ethyl]-1-piperazinyl}-6-fluoro-quinoline] |
| 881 | – | COc1cccc2c(C(C)CN3CCN(c4cc(C)cc5cccnc45)CC3)coc12 (stereo not shown) [Compound 34, 8-{4-[2-(7-methoxy-1-benzofuran-3-yl)propyl]-1-piperazinyl}-6-methyl-quinoline] |
| 176 | – | COc1cccc2c1occ2[C@H]1CC[C@H](N2CCN(c3ccc(Cl)c4cccnc34)CC2)CC1 [Compound 64, 5-chloro-8-{4-[4-trans(7-methoxy-1-benzofuran-3-yl)cyclohexyl]piperazin-1-yl}quinoline] |
| 183 | – | COc1cccc2c(C(C)CN3CCN(c4cc(Cl)cc5cccnc45)CC3)coc12 (stereo not shown) [Compound 33, 8-{4-[2-(7-methoxy-1-benzofuran-3-yl)propyl]-1-piperazinyl}-6-chloro-quinoline] |
| 1780 | – | Cc1cc(N2CCN(CCc3coc4cc(Cl)ccc34)CC2)c2ncccc2c1 [Compound 8, 8-{4-[2-(6-chloro-1-benzofuran-3-yl)ethyl]-1-piperazinyl}-6-methyl-quinoline] |
| 124 | – | COc1cccc2c1occ2[C@H]1CC[C@@H](N2CCN(c3ccc(Cl)c4cccnc34)CC2)CC1 [Compound 63, 5-chloro-8-{4-[4-cis(7-methoxy-1-benzofuran-3-yl)cyclohexyl]piperazin-1-yl}quinoline] |
| 75.6 | – | Cc1cc(N2CCN(CCc3coc4ccccc34)CC2)c2ncccc2c1 [Compound 3, 8-{4-[2-(1-benzofuran-3-yl)ethyl]-1-piperazinyl}-6-methylquinoline] |
| 115 | – | CC(CN1CCN(c2cc(F)cc3cccnc23)CC1)c1coc2ccccc12 (stereo not shown) [Compound 29, 8-{4-[2-(1-benzofuran-3-yl)propyl]-1-piperazinyl}-6-fluoro-quinoline] |
| 659 | – | COc1cc(N2CCN([C@H]3CC[C@@H](c4csc5ccc(F)cc54)CC3)CC2)c2ncccc2c1 [Compound 49, 6-methoxy-8-{4-[4-cis(5-fluoro-1-benzothien-3-yl)cyclohexyl]piperazin-1-yl}quinoline] |
| 9.46 | – | COc1cccc2c(CCN3CCN(c4cccc5cccnc45)CC3)coc12 [Compound 18, 8-{4-[2-(7-methoxy-1-benzofuran-3-yl)ethyl]-1-piperazinyl}-quinoline] |
| 9.53 | – | COc1cccc2c(C(C)CN3CCN(c4cccc5cccnc45)CC3)coc12 (stereo not shown) [Compound 31, 8-{4-[2-(7-methoxy-1-benzofuran-3-yl)propyl]-1-piperazinyl}quinoline] |
| 9.82 | – | Cc1cc(N2CCN(CCc3coc4ccc(Cl)cc34)CC2)c2ncccc2c1 [Compound 14, 8-{4-[2-(5-chloro-1-benzofuran-3-yl)ethyl]-1-piperazinyl}-6-methyl-quinoline] |
| 182 | – | COc1ccc2occ(CCN3CCN(c4cc(C)cc5cccnc45)CC3)c2c1 [Compound 23, 8-{4-[2-(5-methoxy-1-benzofuran-3-yl)ethyl]-1-piperazinyl}-6-methyl-quinoline] |
| 206 | – | COc1ccc2c(CCN3CCN(c4cc(C)cc5cccnc45)CC3)coc2c1 [Compound 10, 8-{4-[2-(6-methoxy-1-benzofuran-3-yl)ethyl]-1-piperazinyl}-6-methyl-quinoline] |
| 180 | – | COc1cc(N2CCN(CCc3coc4ccc(F)cc34)CC2)c2ncccc2c1 [Compound 16, 8-{4-[2-(5-fluoro-1-benzofuran-3-yl)ethyl]-1-piperazinyl}-6-methoxy-quinoline] |
| 47.7 | – | COc1cccc2c(CCN3CCN(c4cc(Cl)cc5cccnc45)CC3)coc12 [Compound 20, 8-{4-[2-(7-methoxy-1-benzofuran-3-yl)ethyl]-1-piperazinyl}-6-chloro-quinoline] |
| 272 | – | COc1cccc2c1occ2[C@H]1CC[C@H](N2CCN(c3ccc(F)c4cccnc34)CC2)CC1 [Compound 58, 5-fluoro-8-{4-[4-trans(7-methoxy-1-benzofuran-3-yl)cyclohexyl]-1-piperazinyl}quinoline] |
| 347 | – | Cc1cc(N2CCN(CC(C)c3coc4ccccc34)CC2)c2ncccc2c1 (stereo not shown) [Compound 30, 8-{4-[2-(1-benzofuran-3-yl)propyl]-1-piperazinyl}-6-methyl-quinoline] |

Reference: patent US20090054454A1, “BENZOFURANYL- AND BENZOTHIENYL- PIPERAZINYL QUINOLINES AND METHODS OF THEIR USE” (priority 2007, published 2009)
